Data from article PMC10882719 (Frontiers in Neuroscience, 2024).
Like-named read-outs stand apart in the source and are kept apart here.

Legend:
Format in all cases: cell-based
168 GPCRs [1] = target: T1, 168 GPCRs (Homo sapiens, UniProt P47871); conditions: GCGR
T1 construct: host or cells: PathHunter cell lines

168 GPCRs [2] = target: T2, 168 GPCRs (Homo sapiens, UniProt P25090)
T2 construct: host or cells: PathHunter cell lines
T2 sequence (P25090 1-351): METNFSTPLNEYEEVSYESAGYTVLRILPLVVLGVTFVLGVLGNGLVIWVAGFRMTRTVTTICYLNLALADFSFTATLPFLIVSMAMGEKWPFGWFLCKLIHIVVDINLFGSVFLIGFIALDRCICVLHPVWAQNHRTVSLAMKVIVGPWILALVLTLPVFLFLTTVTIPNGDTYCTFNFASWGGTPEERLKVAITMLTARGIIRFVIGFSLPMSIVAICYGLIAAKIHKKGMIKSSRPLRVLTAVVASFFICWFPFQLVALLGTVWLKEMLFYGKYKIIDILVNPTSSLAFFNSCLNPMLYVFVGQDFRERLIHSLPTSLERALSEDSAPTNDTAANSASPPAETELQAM

168 GPCRs [3] = target: T3, 168 GPCRs (Homo sapiens, UniProt P49019); conditions: GPR109B
T3 construct: host or cells: PathHunter cell lines
T3 sequence (P49019 whole entry): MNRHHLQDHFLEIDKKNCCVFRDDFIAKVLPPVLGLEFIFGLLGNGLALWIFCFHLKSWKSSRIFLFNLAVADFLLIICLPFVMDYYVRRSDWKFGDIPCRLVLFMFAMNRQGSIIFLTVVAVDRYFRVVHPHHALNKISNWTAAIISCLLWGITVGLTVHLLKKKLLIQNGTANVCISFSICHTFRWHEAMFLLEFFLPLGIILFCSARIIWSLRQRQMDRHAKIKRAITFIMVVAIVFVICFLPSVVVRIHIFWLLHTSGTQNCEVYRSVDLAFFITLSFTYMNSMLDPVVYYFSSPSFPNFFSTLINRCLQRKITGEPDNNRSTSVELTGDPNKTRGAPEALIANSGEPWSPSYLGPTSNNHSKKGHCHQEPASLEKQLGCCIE

168 GPCRs [4] = target: T4, 168 GPCRs (Homo sapiens, UniProt Q5NUL3)
T4 construct: host or cells: PathHunter cell lines
T4 sequence (Q5NUL3 1-361): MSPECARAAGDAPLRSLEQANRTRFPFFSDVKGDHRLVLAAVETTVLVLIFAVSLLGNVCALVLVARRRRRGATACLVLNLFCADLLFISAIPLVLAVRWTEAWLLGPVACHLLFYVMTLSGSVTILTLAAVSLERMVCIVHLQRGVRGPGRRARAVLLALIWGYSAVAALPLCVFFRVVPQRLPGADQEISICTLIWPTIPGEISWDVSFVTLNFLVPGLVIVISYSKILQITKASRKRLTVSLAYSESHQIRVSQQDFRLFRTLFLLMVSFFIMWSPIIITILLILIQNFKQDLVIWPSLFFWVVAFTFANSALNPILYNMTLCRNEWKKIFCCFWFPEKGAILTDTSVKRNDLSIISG

168 GPCRs [5] = target: T5, 168 GPCRs (Homo sapiens, UniProt P20309)
T5 construct: host or cells: PathHunter cell lines
T5 sequence (P20309 whole entry): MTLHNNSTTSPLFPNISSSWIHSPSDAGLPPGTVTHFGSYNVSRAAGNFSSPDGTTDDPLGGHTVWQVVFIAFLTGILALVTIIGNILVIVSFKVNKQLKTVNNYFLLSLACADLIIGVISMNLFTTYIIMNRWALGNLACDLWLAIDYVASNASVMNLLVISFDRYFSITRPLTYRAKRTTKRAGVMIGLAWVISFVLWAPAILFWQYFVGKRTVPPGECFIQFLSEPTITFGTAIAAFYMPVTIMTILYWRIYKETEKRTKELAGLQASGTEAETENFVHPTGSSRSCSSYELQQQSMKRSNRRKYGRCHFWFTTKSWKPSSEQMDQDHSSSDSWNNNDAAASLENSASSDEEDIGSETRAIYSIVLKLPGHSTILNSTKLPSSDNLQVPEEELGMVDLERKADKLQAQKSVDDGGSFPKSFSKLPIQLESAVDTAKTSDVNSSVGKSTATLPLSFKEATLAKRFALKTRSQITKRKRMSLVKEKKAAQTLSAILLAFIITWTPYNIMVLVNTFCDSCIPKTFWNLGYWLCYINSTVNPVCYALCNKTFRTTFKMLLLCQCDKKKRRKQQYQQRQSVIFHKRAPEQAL

168 GPCRs [6] = target: T6, 168 GPCRs (Homo sapiens, UniProt Q8TDS4); conditions: GPR109A
T6 construct: host or cells: PathHunter cell lines
T6 sequence (Q8TDS4 whole entry): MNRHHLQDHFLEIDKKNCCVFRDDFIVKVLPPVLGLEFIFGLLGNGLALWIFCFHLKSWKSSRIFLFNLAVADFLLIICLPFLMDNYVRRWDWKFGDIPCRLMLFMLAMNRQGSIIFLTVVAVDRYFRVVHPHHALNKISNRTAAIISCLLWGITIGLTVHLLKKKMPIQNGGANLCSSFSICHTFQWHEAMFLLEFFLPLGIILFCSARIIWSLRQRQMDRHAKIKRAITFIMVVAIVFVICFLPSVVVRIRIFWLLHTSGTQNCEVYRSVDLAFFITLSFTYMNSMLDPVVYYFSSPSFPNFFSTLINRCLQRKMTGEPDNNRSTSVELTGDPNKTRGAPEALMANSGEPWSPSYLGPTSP

168 GPCRs [7] = target: T7, 168 GPCRs (Homo sapiens, UniProt P11229)
T7 construct: host or cells: PathHunter cell lines
T7 sequence (P11229 1-460): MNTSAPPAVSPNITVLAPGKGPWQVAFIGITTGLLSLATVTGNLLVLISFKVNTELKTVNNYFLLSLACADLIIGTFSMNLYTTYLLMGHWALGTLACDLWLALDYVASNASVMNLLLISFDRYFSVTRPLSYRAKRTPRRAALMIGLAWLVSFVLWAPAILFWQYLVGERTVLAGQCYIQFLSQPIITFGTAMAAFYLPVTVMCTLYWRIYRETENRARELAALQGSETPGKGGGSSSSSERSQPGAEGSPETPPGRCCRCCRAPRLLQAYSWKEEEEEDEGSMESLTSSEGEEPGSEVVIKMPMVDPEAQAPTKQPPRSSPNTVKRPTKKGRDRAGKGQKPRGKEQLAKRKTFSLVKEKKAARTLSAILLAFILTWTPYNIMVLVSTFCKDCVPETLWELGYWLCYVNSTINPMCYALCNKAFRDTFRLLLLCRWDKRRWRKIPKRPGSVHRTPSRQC

168 GPCRs [8] = target: T8, 168 GPCRs (Homo sapiens, UniProt P14416); conditions: DRD2L
T8 construct: host or cells: PathHunter cell lines
T8 sequence (P14416 whole entry): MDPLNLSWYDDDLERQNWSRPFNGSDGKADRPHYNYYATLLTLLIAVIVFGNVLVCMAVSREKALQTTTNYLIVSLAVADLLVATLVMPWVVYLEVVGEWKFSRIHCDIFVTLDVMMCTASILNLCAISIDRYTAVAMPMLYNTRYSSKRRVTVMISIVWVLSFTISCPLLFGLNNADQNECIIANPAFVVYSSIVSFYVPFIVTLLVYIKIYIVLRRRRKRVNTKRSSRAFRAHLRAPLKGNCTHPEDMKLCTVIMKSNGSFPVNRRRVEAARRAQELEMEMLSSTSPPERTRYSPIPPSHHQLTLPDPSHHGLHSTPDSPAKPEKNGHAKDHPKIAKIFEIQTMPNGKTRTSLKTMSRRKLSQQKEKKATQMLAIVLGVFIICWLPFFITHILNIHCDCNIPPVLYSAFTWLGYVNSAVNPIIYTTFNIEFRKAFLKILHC

168 GPCRs [9] = target: T9, 168 GPCRs (Homo sapiens, UniProt P43220); conditions: GLP1R
T9 construct: host or cells: PathHunter cell lines
T9 sequence (P43220 24-463): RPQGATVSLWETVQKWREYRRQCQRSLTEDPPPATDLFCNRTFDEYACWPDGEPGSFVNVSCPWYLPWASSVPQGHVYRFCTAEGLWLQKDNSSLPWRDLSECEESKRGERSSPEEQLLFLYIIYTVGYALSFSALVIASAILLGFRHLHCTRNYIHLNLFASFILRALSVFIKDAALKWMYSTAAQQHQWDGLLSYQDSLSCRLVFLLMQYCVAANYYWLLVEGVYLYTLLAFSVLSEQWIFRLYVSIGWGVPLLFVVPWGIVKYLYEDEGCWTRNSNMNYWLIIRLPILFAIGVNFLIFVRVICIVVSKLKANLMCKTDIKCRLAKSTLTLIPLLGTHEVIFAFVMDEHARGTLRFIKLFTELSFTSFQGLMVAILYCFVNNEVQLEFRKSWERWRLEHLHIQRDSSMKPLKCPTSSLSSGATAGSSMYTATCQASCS

T1 sequence (P47871 26-477): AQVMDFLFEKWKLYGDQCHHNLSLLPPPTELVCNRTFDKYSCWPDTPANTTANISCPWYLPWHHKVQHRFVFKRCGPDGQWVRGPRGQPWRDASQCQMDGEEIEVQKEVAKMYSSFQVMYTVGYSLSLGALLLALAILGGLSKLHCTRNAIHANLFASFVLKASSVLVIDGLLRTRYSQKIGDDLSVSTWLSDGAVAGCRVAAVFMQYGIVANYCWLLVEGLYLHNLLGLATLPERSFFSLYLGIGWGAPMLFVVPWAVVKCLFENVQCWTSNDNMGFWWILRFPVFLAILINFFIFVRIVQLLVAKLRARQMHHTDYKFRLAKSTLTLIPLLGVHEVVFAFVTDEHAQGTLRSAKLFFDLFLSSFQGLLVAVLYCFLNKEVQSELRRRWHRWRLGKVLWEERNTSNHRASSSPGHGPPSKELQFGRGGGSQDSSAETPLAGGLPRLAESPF

SMILES	% Agonist Activity (168 GPCRs [1]; 1 uM) [%]	% Antagonist Activity (168 GPCRs [1]; 1 uM) [%]	% Agonist Activity (168 GPCRs [1]; 10 uM) [%]	% Antagonist Activity (168 GPCRs [1]; 10 uM) [%]	% Agonist Activity (168 GPCRs [2]; FPRL1, 1 uM) [%]	% Antagonist Activity (168 GPCRs [2]; FPRL1, 1 uM) [%]	% Agonist Activity (168 GPCRs [2]; FPRL1, 10 uM) [%]	% Antagonist Activity (168 GPCRs [2]; FPRL1, 10 uM) [%]	% Agonist Activity (168 GPCRs [3]; 1 uM) [%]	% Antagonist Activity (168 GPCRs [3]; 1 uM) [%]	% Agonist Activity (168 GPCRs [3]; 10 uM) [%]	% Antagonist Activity (168 GPCRs [3]; 10 uM) [%]	% Agonist Activity (168 GPCRs [4]; GPR120, 1 uM) [%]	% Antagonist Activity (168 GPCRs [4]; GPR120, 1 uM) [%]	% Agonist Activity (168 GPCRs [4]; GPR120, 10 uM) [%]	% Antagonist Activity (168 GPCRs [4]; GPR120, 10 uM) [%]	% Agonist Activity (168 GPCRs [5]; CHRM3, 1 uM) [%]	% Antagonist Activity (168 GPCRs [5]; CHRM3, 1 uM) [%]	% Agonist Activity (168 GPCRs [5]; CHRM3, 10 uM) [%]	% Antagonist Activity (168 GPCRs [5]; CHRM3, 10 uM) [%]	other results
CNC(C)C(=O)c1ccc2c(c1)OCO2 (stereo not drawn) [methylone]	-2.3	-16	-3	-7.7	-0.5	12.3	0.1	3.9	1	-16.5	0.5	-20.2	-5.1	46.5	-5.8	40.3	6	-5.5	6	14.6	% Agonist Activity (168 GPCRs [6]; 1 uM): -8.7%; % Antagonist Activity (168 GPCRs [6]; 1 uM): 1.4%; % Agonist Activity (168 GPCRs [6]; 10 uM): -4.3%; % Antagonist Activity (168 GPCRs [6]; 10 uM): -0.3%; % Agonist Activity (168 GPCRs [7]; CHRM1, 1 uM): -9.1%; % Antagonist Activity (168 GPCRs [7]; CHRM1, 1 uM): 15.8%; % Agonist Activity (168 GPCRs [7]; CHRM1, 10 uM): -8.5%; % Antagonist Activity (168 GPCRs [7]; CHRM1, 10 uM): 2%; % Agonist Activity (168 GPCRs [8]; 1 uM): 0.1%; % Antagonist Activity (168 GPCRs [8]; 1 uM): 1.1%; % Agonist Activity (168 GPCRs [8]; 10 uM): -0.7%; % Antagonist Activity (168 GPCRs [8]; 10 uM): 0.1%; % Agonist Activity (168 GPCRs [9]; 1 uM): -0.3%; % Antagonist Activity (168 GPCRs [9]; 1 uM): 3.4%; % Agonist Activity (168 GPCRs [9]; 10 uM): -0.1%; % Antagonist Activity (168 GPCRs [9]; 10 uM): -0.9%
CNC(C)Cc1ccc2c(c1)OCO2 (stereo not drawn) [MDMA, 3,4-Methylenedioxy methamphetamine, reference compound]	-1	-1.7	-0.9	-7.4	-0.1	14.8	-0.1	16.7	0.7	-15.2	1.4	-11.4	-3.7	11.3	-4.4	8.8	5.1	-9.4	4.3	1.4	% Agonist Activity (168 GPCRs [6]; 1 uM): -2.1%; % Antagonist Activity (168 GPCRs [6]; 1 uM): 3.7%; % Agonist Activity (168 GPCRs [6]; 10 uM): 0.4%; % Antagonist Activity (168 GPCRs [6]; 10 uM): 1%; % Agonist Activity (168 GPCRs [7]; CHRM1, 1 uM): 0.2%; % Antagonist Activity (168 GPCRs [7]; CHRM1, 1 uM): 12.1%; % Agonist Activity (168 GPCRs [7]; CHRM1, 10 uM): 0.7%; % Antagonist Activity (168 GPCRs [7]; CHRM1, 10 uM): 0.1%; % Agonist Activity (168 GPCRs [8]; 1 uM): 3.3%; % Antagonist Activity (168 GPCRs [8]; 1 uM): 4.8%; % Agonist Activity (168 GPCRs [8]; 10 uM): 2.6%; % Antagonist Activity (168 GPCRs [8]; 10 uM): 11.7%; % Agonist Activity (168 GPCRs [9]; 1 uM): -0.4%; % Antagonist Activity (168 GPCRs [9]; 1 uM): 9.5%; % Agonist Activity (168 GPCRs [9]; 10 uM): -0.2%; % Antagonist Activity (168 GPCRs [9]; 10 uM): 12.9%
